Measurements reported in patent US9403832B2, “Pyrazolo[1,5-a]pyrimidine-based compounds, compositions comprising them, and methods of their use” (Lexicon Pharmaceuticals, Inc., priority 2012, dated 2016).
pIC50: −log10 of the molar value.

Target: T1, AAK1 (Homo sapiens, UniProt Q2M2I8)
T1 construct: NP_055726.2
Assay: P81 filter plate assay
Type: biochemical
Details: full-length human AAK1, Mu2 substrate, 33P-ATP
Protocol: Compounds were serially diluted into a Labcyte LDV plate (Labcyte, cat#LP-0200) using a Mutiprobe (PerkinElmer) and Biomek FX (Beckman Coulter) so that the highest compound concentration was at 96 μM. Compounds were then pinged (75 nL per well) into a Greiner 384-well reaction plate (Greiner, #781076) using an ECHO 550 Liquid Handler (Labcyte). A total of 12 μl reaction buffer (IMAP buffer containing Tween and DTT, from Molecular Devices) was then added to each well of columns 1 and 13 for the negative controls and 12 μl of 2× AAK1 (0.2 nM full-length human protein, NCBI accession no. NP_055726.2) was added to the remaining wells. Enzyme was then pre-incubated with compound for 10 minutes at RT. Reactions were initiated upon Minitrak (PerkinElmer) addition of 12 μl substrate mix containing 2× Mu2 (0.2 μM, full length human protein), 2× cold ATP (2 μM), and 1.3 μCi of hot ^33P-ATP. […] proceeded for one hour at RT. Meanwhile, Millipore 384-well P81 filter plates (Millipore, catalog #MZPHNOW10) were placed on a plate washer (Zoom ZW, from Titertek) and pre-wet with 50 μl 1% phosphoric acid. Kinase reactions were then stopped upon addition of 24 μl of 2% phosphoric acid to each well and the Minitrak was then used to transfer 40 μl from each well into the pre-wet Millipore 384-well P81 filter plates. Reaction mixtures were incubated for 10 minutes at RT in the P81 plates, followed by washing five times with 100 μl/well of 1% phosphoric acid using the Zoom filter washer. The bottom of each filter plate was sealed followed by addition of 20 μl Microscint 40 to each well, sealing the top of the plates with Flashplate cover, and then waiting one hour until reading on the TopCount (PerkinElmer).

T1 sequence (Q2M2I8 1-863 isoform Q2M2I8-2): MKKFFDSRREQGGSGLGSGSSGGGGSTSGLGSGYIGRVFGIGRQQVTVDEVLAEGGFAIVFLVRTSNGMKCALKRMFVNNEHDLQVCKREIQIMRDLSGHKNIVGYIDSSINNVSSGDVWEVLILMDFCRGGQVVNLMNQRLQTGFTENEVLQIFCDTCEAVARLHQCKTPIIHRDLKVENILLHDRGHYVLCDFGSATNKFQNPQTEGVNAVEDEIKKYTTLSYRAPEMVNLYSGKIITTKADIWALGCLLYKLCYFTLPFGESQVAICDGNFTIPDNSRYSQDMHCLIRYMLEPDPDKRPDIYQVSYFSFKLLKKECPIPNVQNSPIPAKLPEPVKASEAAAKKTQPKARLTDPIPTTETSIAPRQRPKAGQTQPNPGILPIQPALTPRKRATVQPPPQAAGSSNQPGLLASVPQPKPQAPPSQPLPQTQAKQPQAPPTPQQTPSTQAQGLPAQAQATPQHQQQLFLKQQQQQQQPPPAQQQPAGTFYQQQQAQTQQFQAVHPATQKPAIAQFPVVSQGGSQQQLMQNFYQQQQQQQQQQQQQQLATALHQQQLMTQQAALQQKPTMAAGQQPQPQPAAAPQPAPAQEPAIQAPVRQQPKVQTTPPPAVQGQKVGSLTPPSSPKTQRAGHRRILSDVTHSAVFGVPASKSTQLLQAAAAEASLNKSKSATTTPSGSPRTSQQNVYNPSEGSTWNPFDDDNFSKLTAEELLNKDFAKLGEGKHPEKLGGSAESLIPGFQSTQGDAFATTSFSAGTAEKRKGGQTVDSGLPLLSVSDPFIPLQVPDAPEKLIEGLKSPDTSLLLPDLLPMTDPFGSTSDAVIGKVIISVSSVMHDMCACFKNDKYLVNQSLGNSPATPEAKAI

SMILES | pIC50
COCC(COC)OC(=O)N1CCN(c2ccn3ncc(-c4cccnc4OC)c3n2)CC1 [1,3-dimethoxypropan-2-yl 4-(3-(2-methoxypyridin-3-yl)pyrazolo[1,5-a]pyrimidin-5-yl)piperazine-1-carboxylate] | ≥ 7.00
COc1ncccc1-c1cnn2ccc(N3CCN(C(=O)CC(C)C)CC3)nc12 [1-(4-(3-(2-methoxypyridin-3-yl)pyrazolo[1,5-a]pyrimidin-5-yl)piperazin-1-yl)-3-methylbutan-1-one] | ≥ 8.00
COCCOCCOC(=O)N1CCN(c2ccn3ncc(-c4cccnc4OC)c3n2)CC1 [2-(2-methoxyethoxy)ethyl 4-(3-(2-methoxypyridin-3-yl)pyrazolo[1,5-a]pyrimidin-5-yl)piperazine-1-carboxylate] | ≥ 7.00
COc1ncccc1-c1cnn2ccc(N3CCN(C(=O)OCCN(C)C)CC3)nc12 [2-(dimethylamino)ethyl 4-(3-(2-methoxypyridin-3-yl)pyrazolo[1,5-a]pyrimidin-5-yl)piperazine-1-carboxylate] | ≥ 7.00
COc1ncccc1-c1cnn2ccc(N3CCN(C(=O)OCCOC(C)(C)C)CC3)nc12 [2-(tert-butoxy)ethyl 4-(3-(2-methoxypyridin-3-yl)pyrazolo[1,5-a]pyrimidin-5-yl)piperazine-1-carboxylate] | ≥ 8.00
COc1ncccc1-c1cnn2ccc(N3CCN(C(=O)C(C)(C)N)CC3)nc12 [2-amino-1-(4-(3-(2-methoxypyridin-3-yl)pyrazolo[1,5-a]pyrimidin-5-yl)piperazin-1-yl)-2-methylpropan-1-one] | ≥ 7.00
CCOCCOC(=O)N1CCN(c2ccn3ncc(-c4cccnc4OC)c3n2)CC1 [2-ethoxyethyl 4-(3-(2-methoxypyridin-3-yl)pyrazolo[1,5-a]pyrimidin-5-yl)piperazine-1-carboxylate] | ≥ 7.00
COc1ncccc1-c1cnn2ccc(N3CCN4C(=O)N(CC(C)C)CC4C3)nc12 (stereo not drawn) [2-isobutyl-7-(3-(2-methoxypyridin-3-yl)pyrazolo[1,5-a]pyrimidin-5-yl)hexahydroimidazo[1,5-a]pyrazin-3(2H)-one] | ≥ 8.00
COC(=O)COC(=O)N1CCN(c2ccn3ncc(-c4cccnc4OC)c3n2)CC1 [2-methoxy-2-oxoethyl 4-(3-(2-methoxypyridin-3-yl)pyrazolo[1,5-a]pyrimidin-5-yl)piperazine-1-carboxylate] | ≥ 7.00
CCOc1ncccc1-c1cnn2ccc(N3CCN(C(=O)OCCOC)CC3)nc12 [2-methoxyethyl 4-(3-(2-ethoxypyridin-3-yl)pyrazolo[1,5-a]pyrimidin-5-yl)piperazine-1-carboxylate] | ≥ 8.00
COCCOC(=O)N1CCN(c2ccn3ncc(-c4cccnc4OC)c3n2)CC1 [2-methoxyethyl 4-(3-(2-methoxypyridin-3-yl)pyrazolo[1,5-a]pyrimidin-5-yl)piperazine-1-carboxylate] | ≥ 8.00
COc1nc(C)ccc1-c1cnn2ccc(N3CCN(CC(F)(F)F)CC3)nc12 [3-(2-methoxy-6-methylpyridin-3-yl)-5-(4-(2,2,2-trifluoroethyl)piperazin-1-yl)pyrazolo[1,5-a]pyrimidine] | ≥ 7.00
COc1ncccc1-c1cnn2ccc(N3CCN(CC(F)(F)F)CC3)nc12 [3-(2-methoxypyridin-3-yl)-5-(4-(2,2,2-trifluoroethyl)piperazin-1-yl)pyrazolo[1,5-a]pyrimidine] | ≥ 7.00
COc1ncccc1-c1cnn2ccc(N3CCN(CCC(F)(F)F)CC3)nc12 [3-(2-methoxypyridin-3-yl)-5-(4-(3,3,3-trifluoropropyl)piperazin-1-yl)pyrazolo[1,5-a]pyrimidine] | ≥ 6.00
COc1ncc(F)cc1-c1cnn2ccc(N3CCN(CC(F)(F)F)CC3)nc12 [3-(5-fluoro-2-methoxypyridin-3-yl)-5-(4-(2,2,2-trifluoroethyl)piperazin-1-yl)pyrazolo[1,5-a]pyrimidine] | ≥ 6.00
COc1ncc(F)cc1-c1cnn2ccc(N3CCN(CCC(F)(F)F)CC3)nc12 [3-(5-fluoro-2-methoxypyridin-3-yl)-5-(4-(3,3,3-trifluoropropyl)piperazin-1-yl)pyrazolo[1,5-a]pyrimidine] | ≥ 6.00
FC(F)(F)CN1CCN(c2ccn3ncc(Br)c3n2)CC1 [3-bromo-5-(4-(2,2,2-trifluoroethyl)piperazin-1-yl)pyrazolo[1,5-a]pyrimidine] | ≥ 7.00
CC(C)(C)OCCCNc1ccn2ncc(Br)c2n1 [3-bromo-N-(3-(tert-butoxy)propyl)pyrazolo[1,5-a]pyrimidin-5-amine] | ≥ 6.00

SMILES | pIC50
COCCCOC(=O)N1CCN(c2ccn3ncc(-c4cccnc4OC)c3n2)CC1 [3-methoxypropyl 4-(3-(2-methoxypyridin-3-yl)pyrazolo[1,5-a]pyrimidin-5-yl)piperazine-1-carboxylate] | ≥ 8.00
COCc1cn(-c2ccn3ncc(-c4cccnc4OC)c3n2)cn1 [5-(4-(methoxymethyl)-1H-imidazol-1-yl)-3-(2-methoxypyridin-3-yl)pyrazolo[1,5-a]pyrimidine] | ≥ 7.00
COc1ncccc1-c1cnn2ccc(N3CCN(c4noc(C(C)C)n4)CC3)nc12 [5-isopropyl-3-(4-(3-(2-methoxypyridin-3-yl)pyrazolo[1,5-a]pyrimidin-5-yl)piperazin-1-yl)-1,2,4-oxadiazole] | ≥ 7.00
COc1ncccc1-c1cnn2ccc(-n3cnc(CO)c3)nc12 [(1-(3-(2-methoxypyridin-3-yl)pyrazolo[1,5-a]pyrimidin-5-yl)-1H-imidazol-4-yl)methanol] | ≥ 7.00
COc1ncccc1-c1cnn2ccc(N3C[C@H]4C[C@@H](C3)N4C(=O)OC(C)C)nc12 [(1R,5S)-isopropyl 3-(3-(2-methoxypyridin-3-yl)pyrazolo[1,5-a]pyrimidin-5-yl)-3,6-diazabicyclo[3.1.1]heptane-6-carboxylate] | ≥ 7.00
COc1ncccc1-c1cnn2ccc(N3C[C@H]4C[C@@H](C3)N4C(=O)OC(C)(C)C)nc12 [(1R,5S)-tert-butyl 3-(3-(2-methoxypyridin-3-yl)pyrazolo[1,5-a]pyrimidin-5-yl)-3,6-diazabicyclo[3.1.1]heptane-6-carboxylate] | ≥ 7.00
CCO/C=C/c1cnn2ccc(N3CCN(C(=O)OC(C)C)CC3)nc12 [(E)-isopropyl 4-(3-(2-ethoxyvinyl)pyrazolo[1,5-a]pyrimidin-5-yl)piperazine-1-carboxylate] | ≥ 7.00
COC/C=C/c1cnn2ccc(N3CCN(C(=O)OC(C)C)CC3)nc12 [(E)-isopropyl 4-(3-(3-methoxyprop-1-en-1-yl)pyrazolo[1,5-a]pyrimidin-5-yl)piperazine-1-carboxylate] | ≥ 6.00
COc1ncccc1-c1cnn2ccc(N3CCN(C(=O)[C@H](N)CC(C)C)CC3)nc12 [(R)-2-amino-1-(4-(3-(2-methoxypyridin-3-yl)pyrazolo[1,5-a]pyrimidin-5-yl)piperazin-1-yl)-4-methylpentan-1-one] | ≥ 7.00
COc1ncccc1-c1cnn2ccc(N3CCN(C[C@@H](N)CC(C)C)CC3)nc12 [(S)-1-(4-(3-(2-methoxypyridin-3-yl)pyrazolo[1,5-a]pyrimidin-5-yl)piperazin-1-yl)-4-methylpentan-2-amine] | ≥ 7.00
CC(C)C[C@H](N)C(=O)N1CCN(c2ccn3ncc(Br)c3n2)CC1 [(S)-2-amino-1-(4-(3-bromopyrazolo[1,5-a]pyrimidin-5-yl)piperazin-1-yl)-4-methylpentan-1-one] | ≥ 7.00
CC(C)C[C@H](N)C(=O)N1CCN(c2ccn3ncc(Cl)c3n2)CC1 [(S)-2-amino-1-(4-(3-chloropyrazolo[1,5-a]pyrimidin-5-yl)piperazin-1-yl)-4-methylpentan-1-one] | ≥ 7.00
CC(C)C[C@H](N)C(=O)N1CCN(c2ccn3ncc(F)c3n2)CC1 [(S)-2-amino-1-(4-(3-fluoropyrazolo[1,5-a]pyrimidin-5-yl)piperazin-1-yl)-4-methylpentan-1-one] | ≥ 6.00
COc1ncccc1-c1cnn2ccc(N(C)CCN(C)C(=O)[C@@H](N)CC(C)C)nc12 [(S)-2-amino-N-(2-((3-(2-methoxypyridin-3-yl)pyrazolo[1,5-a]pyrimidin-5-yl)(methyl)amino)ethyl)-N,4-dimethylpentanamide] | ≥ 8.00
COc1ncccc1-c1cnn2ccc(N3CCN(C(=O)[C@@H]4COCCN4)CC3)nc12 [(S)-(4-(3-(2-methoxypyridin-3-yl)pyrazolo[1,5-a]pyrimidin-5-yl)piperazin-1-yl)(morpholin-3-yl)methanone] | ≥ 8.00
COc1ccccc1-c1cnn2ccc(NC[C@@H]3CCCN3C(=O)NC(C)(C)C)nc12 [(S)-N-(tert-butyl)-2-(((3-(2-methoxyphenyl)pyrazolo[1,5-a]pyrimidin-5-yl)amino)methyl)pyrrolidine-1-carboxamide] | ≥ 8.00
CC(C)OC(=O)N1CCC[C@H]1CN(C)c1ccn2nccc2n1 [(S)-isopropyl 2-((methyl(pyrazolo[1,5-a]pyrimidin-5-yl)amino)methyl)pyrrolidine-1-carboxylate] | ≥ 6.00
Cc1ccc(-c2cnn3ccc(N4CC[C@H](N(C)C(=O)OC(C)C)C4)nc23)c(=O)n1C [(S)-isopropyl (1-(3-(1,6-dimethyl-2-oxo-1,2-dihydropyridin-3-yl)pyrazolo[1,5-a]pyrimidin-5-yl)pyrrolidin-3-yl)(methyl)carbamate] | ≥ 6.00
